Data from patent publication US7998989B2, “2-Imino-1,3-thiazoline-based compounds and T-type calcium channel inhibitors containing the same” (Korea Institute of Science and Technology, priority 2007, dated 2011).

Structure (SMILES) | melting point [°C]
CN1C(=NC2CCCCC2)SCC1CC(=O)NCc1ccccc1.Cl (stereo not shown) | 206 to 206.5
COc1ccc(NC(=O)CC2CSC(=NC3CCCC3)N2C)cc1.Cl (stereo not shown) | 210 to 211
CN1C(=NC2CCCC2)SCC1CC(=O)Nc1ccc(CC#N)cc1.Cl (stereo not shown) | 199.5 to 200
Cc1ccc(NC(=O)CC2CSC(=NC3CCCC3)N2C)c(Cl)c1.Cl (stereo not shown) | 185 to 186.5
Cc1ccc(NC(=O)CC2CSC(=NC3CCCC3)N2C)c(F)c1.Cl (stereo not shown) | 189 to 190
CN1C(=NC2CCCC2)SCC1CC(=O)Nc1ccc(F)cc1F.Cl (stereo not shown) | 240 to 242.5
CN1C(=NC2CCCC2)SCC1CC(=O)Nc1ccccc1.Cl (stereo not shown) | 231.5 to 233
COc1ccc(CNC(=O)CC2CSC(=NC3CCCCC3)N2C)cc1.Cl (stereo not shown) | 193 to 195
CCOc1ccc(NC(=O)CC2CSC(=NC3CC3)N2C)cc1.Cl (stereo not shown) | 219 to 220
CN1C(=NC2CC2)SCC1CC(=O)Nc1ccc(F)cc1.Cl (stereo not shown) | 252 to 253.5
CN1C(=NC2CC2)SCC1CC(=O)Nc1ccc(F)cc1Cl.Cl (stereo not shown) | 237 to 239
CN1C(=NC2CC2)SCC1CC(=O)Nc1ccc(CC#N)cc1.Cl (stereo not shown) | 245 to 245.5
CN1C(=NC2CC2)SCC1CC(=O)Nc1ccc(Br)cc1.Cl (stereo not shown) | 227 to 228.5
Cc1ccc(NC(=O)CC2CSC(=NC3CC3)N2C)c(Cl)c1.Cl (stereo not shown) | 212 to 212.5
CN1C(=NC2CC2)SCC1CC(=O)Nc1cc(Cl)cc(Cl)c1.Cl (stereo not shown) | 260.5 to 261
Cc1ccc(NC(=O)CC2CSC(=NC3CC3)N2C)c(F)c1.Cl (stereo not shown) | 199.5 to 200.5
CN1C(=NC2CC2)SCC1CC(=O)Nc1ccc(F)cc1F.Cl (stereo not shown) | 245 to 246
CN1C(=NC2CC2)SCC1CC(=O)Nc1cc(Cl)ccc1F.Cl (stereo not shown) | 233.5 to 234.5
CN1C(=NC2CC2)SCC1CC(=O)Nc1cc([N+](=O)[O-])ccc1F.Cl (stereo not shown) | 237.5 to 238
CN1C(=NC2CC2)SCC1CC(=O)Nc1ccc(Cl)cc1F.Cl (stereo not shown) | 237 to 237.5
CN1C(=NC2CC2)SCC1CC(=O)Nc1ccc(Cl)cc1.Cl (stereo not shown) | 241.5 to 242.5
CN1C(=NC2CC2)SCC1CC(=O)Nc1ccccc1.Cl (stereo not shown) | 240.5 to 241
CC(C)c1ccc(NC(=O)CC2CSC(=NC3CC3)N2C)cc1.Cl (stereo not shown) | 238 to 238.5
CN1C(=NC2CC2)SCC1CC(=O)NCc1ccc(F)cc1.Cl (stereo not shown) | 200.5 to 202.5
CN1C(=NC2CC2)SCC1CC(=O)NCc1ccc(Cl)cc1.Cl (stereo not shown) | 225.5 to 227
COc1ccc(CNC(=O)CC2CSC(=NC3CC3)N2C)cc1.Cl (stereo not shown) | 220.5 to 222
CN1C(=NC2CCCC2)SCC1CC(=O)NCc1ccc(F)cc1.Cl (stereo not shown) | 160.5 to 162

Structure (SMILES) | melting point [°C]
COc1ccc(CNC(=O)CC2CSC(=NC3CCCC3)N2C)cc1.Cl (stereo not shown) | 172 to 173.5
CN1C(=NCC2CCCCC2)SCC1CC(=O)Nc1ccc(Oc2ccccc2)cc1.Cl (stereo not shown) | 250.8
Cc1ccc(NC(=O)CC2CSC(=NC3CCCCC3)N2C2CC2)cc1.Cl (stereo not shown) | 216.4
CCN1C(=NC2CCCCC2)SCC1CC(=O)Nc1ccc(Cl)cc1.Cl (stereo not shown) | 218.3
CCCN1C(=NC2CCCCC2)SCC1CC(=O)Nc1cc(C(F)(F)F)cc(C(F)(F)F)c1.Cl (stereo not shown) | 243.4
Cl.O=C(CC1CSC(=NC2CCCCC2)N1Cc1ccccc1)Nc1cc(C(F)(F)F)cc(C(F)(F)F)c1 (stereo not shown) | 234.6
Cl.O=C(CC1CSC(=NC2CCCCC2)N1Cc1ccccc1)Nc1ccc(Oc2ccccc2)cc1 (stereo not shown) | 209.5
Cl.O=C(CC1CSC(=NC2CCCCC2)N1Cc1ccccc1)Nc1cc([N+](=O)[O-])ccc1F (stereo not shown) | 166.4
CC(C)c1ccc(NC(=O)CC2CSC(=NC3CCCCC3)N2C2CCCCC2)cc1.Cl (stereo not shown) | 199.7
Cl.O=C(CC1CSC(=NC2CCCCC2)N1C1CCCCC1)Nc1ccc(F)cc1 (stereo not shown) | 256
Cc1ccc(NC(=O)CC2CSC(=NC3CCCCC3)N2C2CCCCC2)cc1Cl.Cl (stereo not shown) | 173
Cl.O=C(CC1CSC(=NC2CCCCC2)N1C1CCCCC1)Nc1cc(Cl)ccc1F (stereo not shown) | 158
Cl.O=C(CC1CSC(=NC2CCCCC2)N1C1CCCCC1)NCc1ccc(Cl)cc1 (stereo not shown) | 152
CC(C)(C)c1ccc(NC(=O)CC2CSC(=NC3CCCCC3)N2C2CCCCC2)cc1.Cl (stereo not shown) | 244
Cl.O=C(CC1CSC(=NC2CCCCC2)N1C1CCCCC1)Nc1cc(Cl)cc(Cl)c1 (stereo not shown) | 202
CN1C(=NC2CCCCCC2)SCC1C(=O)Nc1ccccc1.Cl (stereo not shown) | 211.4
CC1SC(=NC2CCCCC2)N(C)C1CC(=O)Nc1ccccc1.Cl (stereo not shown) | 231 to 234
CC1SC(=NC2CCCCC2)N(C)C1CC(=O)Nc1ccc(C(C)(C)C)cc1.Cl (stereo not shown) | 255 to 257
CC1SC(=NC2CCCC2)N(C)C1CC(=O)Nc1ccccc1.Cl (stereo not shown) | 186 to 188
Cc1ccc(NC(=O)CC2C(C)SC(=NC3CCCC3)N2C)cc1.Cl (stereo not shown) | 228 to 229
CC1SC(=NC2CCCCC2)N(C)C1CC(=O)Nc1ccc([N+](=O)[O-])cc1.Cl (stereo not shown) | 215 to 217
CC1SC(=NC2CCCC2)N(C)C1CC(=O)Nc1ccccc1F.Cl (stereo not shown) | 153
Br.CN1C(=NC2CCCCCC2)SCC1C(=O)Nc1cc([N+](=O)[O-])ccc1F (stereo not shown) | 264.8
CN1C(=NC2CCCCCC2)SCC1C(=O)Nc1ccc(F)cc1.Cl (stereo not shown) | 265.3
Br.CCc1ccc(NC(=O)C2CSC(=NC3CCCCCC3)N2C)cc1 (stereo not shown) | 278 to 279
Br.Cc1ccc(NC(=O)C2CSC(=NC3CCCCCC3)N2C)cc1 (stereo not shown) | 278.9
Br.CN1C(=NC2CCCCCC2)SCC1C(=O)Nc1cc(Cl)cc(Cl)c1 (stereo not shown) | 275.2

Structure (SMILES) | melting point [°C]
Br.CN1C(=NC2CCCCCC2)SCC1C(=O)Nc1ccc(Cl)cc1 (stereo not shown) | 286.5
Br.CCCCc1ccc(NC(=O)C2CSC(=NC3CCCCCC3)N2C)cc1 (stereo not shown) | 240.8
Br.CC(C)c1ccc(NC(=O)C2CSC(=NC3CCCCCC3)N2C)cc1 (stereo not shown) | 282.2
Br.CN1C(=NC2CCCCCC2)SCC1C(=O)Nc1ccc(Oc2ccccc2)cc1 (stereo not shown) | 149.5
Br.CN1C(=NC2CCCCCC2)SCC1C(=O)Nc1ccc(C(C)(C)C)cc1 (stereo not shown) | 169.9
Br.CN1C(=NC2CCCCCC2)SCC1C(=O)Nc1cc(Cl)ccc1F (stereo not shown) | 262.2
Br.CN1C(=NC2CCCCCC2)SCC1C(=O)Nc1cc(C(F)(F)F)cc(C(F)(F)F)c1 (stereo not shown) | 274.1
CCCCN1C(=NC23CC4CC(CC(C4)C2)C3)SCC1CC(=O)Nc1cc(Cl)cc(Cl)c1.Cl (stereo not shown) | 164
CCCCN1C(=NC23CC4CC(CC(C4)C2)C3)SCC1CC(=O)Nc1cc(CF)cc(CF)c1.Cl (stereo not shown) | 252
CCCCN1C(=NC23CC4CC(CC(C4)C2)C3)SCC1CC(=O)Nc1ccc(Oc2ccccc2)cc1.Cl (stereo not shown) | 127
CCCCc1ccc(NC(=O)CC2CSC(=NC34CC5CC(CC(C5)C3)C4)N2C(C)C)cc1.Cl (stereo not shown) | 178
CCCCc1ccc(NC(=O)CC2CSC(=NC3C4CC5CC(C4)CC3C5)N2C)cc1.Cl (stereo not shown) | 127
CC(C)c1ccc(NC(=O)CC2CSC(=NC3C4CC5CC(C4)CC3C5)N2C)cc1.Cl (stereo not shown) | 245
CN1C(=NC2CCCCC2)SCC1CC(=O)Nc1ccc2c(c1)OCO2.Cl (stereo not shown) (hydrate or solvate) [KHG24086, (2-cyclohexylimino-3-methyl-1,3-thiazolidine-4-yl)-N-(3,4-methylenedioxyphenyl)-acetamide hydrochloride] | 146 to 147
COc1ccc(NC(=O)CC2C(C)SC(=NC3CCCCC3)N2C)cc1 (stereo not shown) [KHG24481, (2-cyclohexylimino-3,5-dimethyl-1,3-thiazolidine-4-yl)-N-(4-methoxyphenyl)-acetamide] | 258 to 260
COc1ccc(NC(=O)CC2C(C)SC(=NC3CCCCCC3)N2C)cc1 (stereo not shown) [KHG24485, (2-cycloheptylimino-3,5-dimethyl-1,3-thiazolidine-4-yl)-N-(4-methoxyphenyl)-acetamide] | 250 to 251
CN1C(=NC2CCCCCC2)SCC1C(=O)Nc1ccccc1 (stereo not shown) [KHG24622, (2-cycloheptylimino-3-methyl-1,3-thiazolidine-4-yl)-N-phenyl-carboxamide] | 208
CN1C(=NC2CCCCCC2)SCC1C(=O)Nc1ccccc1Cl (stereo not shown) [KHG24624, (2-cycloheptylimino-3-methyl-1,3-thiazolidine-4-yl)-N-(2-chlorophenyl)-carboxamide] | 198.4
CN1C(=NC2CCCCCC2)SCC1C(=O)Nc1cc(F)ccc1F (stereo not shown) [KHG24625, (2-cycloheptylimino-3-methyl-1,3-thiazolidine-4-yl)-N-(2,5-difluorophenyl)-carboxamide] | 184.2
CN1C(=NC2CCCCCC2)SCC1C(=O)Nc1ccc(F)cc1 (stereo not shown) [KHG24631, (2-cycloheptylimino-3-methyl-1,3-thiazolidine-4-yl)-N-(4-fluorophenyl)-carboxamide] | 169.6
CN1C(=NC2CCCCCC2)SCC1C(=O)Nc1cc([N+](=O)[O-])ccc1F (stereo not shown) [KHG24661, (2-cycloheptylimino-3-methyl-1,3-thiazolidine-4-yl)-N-(2-fluoro-5-nitrophenyl)-carboxamide] | 151.1
CCc1ccc(NC(=O)C2CSC(=NC3CCCCCC3)N2C)cc1 (stereo not shown) [KHG24664, (2-cycloheptylimino-3-methyl-1,3-thiazolidine-4-yl)-N-(4-ethylphenyl)-carboxamide] | 194 to 195
CN1C(=NC2CCCCCC2)SCC1C(=O)Nc1cc(Cl)cc(Cl)c1 (stereo not shown) [KHG24674, (2-cycloheptylimino-3-methyl-1,3-thiazolidine-4-yl)-N-(3,5-dichlorophenyl)-carboxamide] | 191.2
CN1C(=NC2CCCCCC2)SCC1C(=O)Nc1ccc(Cl)cc1 (stereo not shown) [KHG24677, (2-cycloheptylimino-3-methyl-1,3-thiazolidine-4-yl)-N-(4-chlorophenyl)-carboxamide] | 199.7
CC(C)c1ccc(NC(=O)C2CSC(=NC3CCCCCC3)N2C)cc1 (stereo not shown) [KHG24680, (2-cycloheptylimino-3-methyl-1,3-thiazolidine-4-yl)-N-(4-isopropylphenyl)-carboxamide] | 207.6
